One data set deals with Pd VIN3_123-326. Nature of the data set: ITC binding to Pd VIN3 PHD superdomain. The note with it: 25 °C, Pd VIN3_123-326 with 60-mer DNA. Also on record: species or system Phoenix dactylifera. As to the method: VIN3_123-326 from P. dactilyfera was amplified by PCR from synthetic codon optimized genes (gBlocks, Integrated DNA Technologies) and subcloned into pEC-LIC-His-3C (kindly provided by Jurg Muller) containing a hexahistidine tag and a 3C protease cleavage site at the N terminus. VIN3_123-326 was expressed and purified as described previously for VIN3_150-208. In this case, after 3C cleavage overnight, the sample was loaded on a HiLoad 26/600 Superdex 200 pg column (GE Healthcare) in 25 mM Tris pH 8, 150 mM NaCl, and 1 mM DTT.
ITC was carried out at 25 °C with an iTC 200 Microcalorimeter (GE Healthcare) in 25 mM Tris pH 8, 150 mM NaCl, and 1 mM DTT. Titrations consisted of 19 consecutive 2 μl injections of 0.25 to 1 mM peptide solution (following a preinjection of 0.5 μl) into 50 μM protein (VIN3PHD, VIN3_123-326, VIN3_116-307, OBE1_193-372, or pVP13 VIN3_130-299) at time intervals of 120 s. ITC data were analyzed using MicroCal PEAQ-IT Analysis Software (Malvern Sciences).

Data set [1] has as its system ^15N-labeled Pd VIN3_123-326. The data set is described as follows: NMR (BEST-TROSY) interaction of negatively charged polymers with Pd VIN3 PHD superdomain. In kind it is binding, Phoenix dactylifera. The protocol:
For NMR spectroscopy, A. thaliana VIN3_150-208 and P. dactilyfera VIN3_123-326 were expressed in M9 minimal medium supplemented with 0.4% glucose, antibiotics, trace elements, 25 ml overnight culture, and 2 g of ^15N-H4Cl per liter of expression culture. Cultures were grown and processed essentially as described before. NMR samples containing 50 μM ^15N-labeled VIN3_150-208 or VIN3_123-326 were prepared in aqueous buffer (25 mM Tris pH 8, 150 mM NaCl, and 1 mM DTT). The 50 μM ^15N-labeled VIN3_150-208 or VIN3_123-326 was incubated with 0.5 mM histone H3 peptides resuspended in 25 mM Tris pH 8, 150 mM NaCl, and 1 mM DTT for >30 min before measurement. Spectra were recorded on a Bruker Avance-III spectrometer operating at 600 MHz ^1H frequency and equipped with a 5 mm inverse detection cryogenic probe. BEST-TROSY shift correlation experiments ([45]) were acquired with 256 × 1024 points in t1 and t2, respectively. Spectra were processed in TopSpin version 3.2 (Bruker), with linear prediction in t1, giving a digital resolution of 2.2 and 8.2 Hz/point in the processed data.
Generation of nucleic acid probes for NMR
FLC DNA was used as a template for the design of a dsDNA 60-mer probe, generated by annealing the sequence (5′ […] 3′) and its complementary oligonucleotide for 2 min at 95 °C. […]

By Kd is commonly meant the free concentration of one partner at which half of the binding sites on the other are occupied at equilibrium, for simple one-to-one binding. High values mean lower affinity, low ones higher affinity.

On to “60-mer ssDNA: FLC 60-mer predicted to lack secondary structure, 5′ GAAGAAAAAGTAGATAGGCACAAAAAATAGAAAGAAATAAAGCGAGAAAAGGAAAAAAAA 3′ (DNA, backbone and methylation of C not given here)”, for which the “affinity / binding of nucleic acid (in words)” value with Pd VIN3_123-326 (ITC titrations, pH 8) is reported as “weak binding in the low millimolar range”. Further, the Kd with Pd VIN3_123-326 (ITC, 25 mM Tris pH 8, 150 mM NaCl, 1 mM DTT, representative profile) is ~5 mM. Besides, the “perturbation of BEST-TROSY spectrum (in words)” value in data set [1] (50 μM ^15N-labeled VIN3_123-326, 4 μM 60-mer dsDNA or 63-mer RNA (Fig. 6A, B), ssDNA comparison E. F.-E., unpublished) was “less effective in eliciting spectral changes than dsDNA”.
On to heparin, for which, in data set [1] (50 μM ^15N-labeled VIN3_123-326, 4 μM heparin), the “perturbation of BEST-TROSY spectrum, heparin (in words)” value is on record as “same set of perturbations”.

The values are drawn from article PMC9640981, “Plant vernalization proteins contain unusual PHD superdomains without histone H3 binding activity” (The Journal of Biological Chemistry, 2022).
